In ChEMBL document CHEMBL1145635, “Identification of long chain alkylidenemalonates as novel small molecule modulators of histone acetyltransferases” (2008):
Activity calls are given as the source filed them. No cut-off for these calls is given here.

What was measured:
HEK-TE [1] = test: Increase in histone H3 acetylation in human HEK-TE cells at 5 uM after 6 hrs by Western blot analysis; assay type: functional, cell-based
U-937 [2] = test: Inhibition of recombinant CBP in human U937 cells at 50 uM; assay type: cell-based; set-up: scale not given: the % may be the effect or the level left
U-937 [3] = test: Inhibition of p300/CBP in human U937 cells at 50 uM; assay type: cell-based; set-up: scale not given: the % may be the effect or the level left
U-937 [4] = test: Cell cycle arrest in human U937 cells assessed as accumulation at S phase at 25 uM after 42 hrs by flow cytometry; assay type: functional, cell-based
U-937 [5] = test: Induction of apoptosis in human U937 cells at 25 uM after 42 hrs by flow cytometry; assay type: functional
U-937 [6] = test: Increase in histone H3 acetylation in human U937 cells at 50 uM after 20 hrs by Western blot analysis; assay type: functional, cell-based
U-937 [7] = test: Increase in histone H3 acetylation in human U937 cells at 5 uM after 20 hrs by Western blot analysis; assay type: functional, cell-based
U-937 [8] = test: Increase in histone H3 acetylation in human U937 cells at 50 uM after 16 hrs by Western blot analysis; assay type: functional, cell-based
U-937 [9] = test: Effect on non histone alpha-tubulin in human U937 cells at 50 uM after 16 hrs by Western blot analysis; assay type: functional, cell-based
[10] = target: Histone acetyltransferase KAT2B (Homo sapiens) (UniProt Q92831); test: Effect on PCAF in human U937 cells assessed as increase in acetylation activity at 50 uM; assay type: cell-based; conditions: U-937
HEK-TE [11] = test: Increase in histone H3 acetylation in human HEK-TE cells at 50 uM after 6 hrs by Western blot analysis; assay type: functional, cell-based
U-937 [12] = test: Induction of apoptosis in human U937 cells at 50 uM after 42 hrs by flow cytometry; assay type: functional
[13] = target: Histone acetyltransferase KAT2A (Homo sapiens) (UniProt Q92830); test: Inhibition of GCN5 in human U937 cells at 50 uM; assay type: cell-based; conditions: U-937
Histone acetyltransferase KAT2A (Homo sapiens), sequence (Q92830 2-837 limits assumed): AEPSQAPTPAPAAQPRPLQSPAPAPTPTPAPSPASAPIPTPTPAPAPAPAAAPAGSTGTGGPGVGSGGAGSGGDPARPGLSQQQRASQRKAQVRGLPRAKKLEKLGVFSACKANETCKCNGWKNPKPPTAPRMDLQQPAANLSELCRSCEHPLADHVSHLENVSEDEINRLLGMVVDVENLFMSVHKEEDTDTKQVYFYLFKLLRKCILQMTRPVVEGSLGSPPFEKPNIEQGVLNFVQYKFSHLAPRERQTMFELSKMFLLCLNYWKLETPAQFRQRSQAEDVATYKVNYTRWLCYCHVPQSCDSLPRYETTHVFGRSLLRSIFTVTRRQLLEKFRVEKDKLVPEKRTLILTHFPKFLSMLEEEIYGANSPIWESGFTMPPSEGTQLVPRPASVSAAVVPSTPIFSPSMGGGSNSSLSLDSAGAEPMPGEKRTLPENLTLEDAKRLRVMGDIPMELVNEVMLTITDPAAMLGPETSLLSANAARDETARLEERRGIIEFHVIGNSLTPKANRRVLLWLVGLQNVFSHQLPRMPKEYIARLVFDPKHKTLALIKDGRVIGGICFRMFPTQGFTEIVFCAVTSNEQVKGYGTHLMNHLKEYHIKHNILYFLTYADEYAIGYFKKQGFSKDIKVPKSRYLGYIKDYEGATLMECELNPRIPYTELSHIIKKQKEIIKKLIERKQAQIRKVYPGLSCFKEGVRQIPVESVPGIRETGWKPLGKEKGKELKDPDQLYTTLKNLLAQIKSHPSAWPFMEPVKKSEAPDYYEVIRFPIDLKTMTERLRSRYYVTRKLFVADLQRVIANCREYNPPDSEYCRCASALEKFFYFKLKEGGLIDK

Histone acetyltransferase KAT2B (Homo sapiens), sequence (Q92831 whole entry, looked up): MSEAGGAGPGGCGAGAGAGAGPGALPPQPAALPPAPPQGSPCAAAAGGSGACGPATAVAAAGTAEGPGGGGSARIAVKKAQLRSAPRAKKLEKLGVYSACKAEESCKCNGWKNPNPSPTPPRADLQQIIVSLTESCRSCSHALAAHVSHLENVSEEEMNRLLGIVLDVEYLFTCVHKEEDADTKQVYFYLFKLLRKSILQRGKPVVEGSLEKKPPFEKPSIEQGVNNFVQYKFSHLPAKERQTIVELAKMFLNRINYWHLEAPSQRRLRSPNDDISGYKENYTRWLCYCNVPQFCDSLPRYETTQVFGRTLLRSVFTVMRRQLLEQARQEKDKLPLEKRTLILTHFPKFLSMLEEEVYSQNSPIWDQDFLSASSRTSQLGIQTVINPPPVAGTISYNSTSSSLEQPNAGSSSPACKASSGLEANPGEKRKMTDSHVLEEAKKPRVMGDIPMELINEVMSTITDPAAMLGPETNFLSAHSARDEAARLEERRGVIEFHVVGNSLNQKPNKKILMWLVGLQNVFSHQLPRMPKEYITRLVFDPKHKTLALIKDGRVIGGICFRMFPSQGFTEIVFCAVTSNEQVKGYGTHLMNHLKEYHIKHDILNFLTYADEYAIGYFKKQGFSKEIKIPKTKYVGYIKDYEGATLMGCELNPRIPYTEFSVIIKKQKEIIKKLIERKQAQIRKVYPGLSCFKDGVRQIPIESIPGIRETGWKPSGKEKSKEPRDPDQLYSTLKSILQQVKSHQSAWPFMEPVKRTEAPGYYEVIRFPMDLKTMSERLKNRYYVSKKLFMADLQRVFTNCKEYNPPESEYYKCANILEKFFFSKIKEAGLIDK

| Structure (SMILES) | Activity (HEK-TE [1]) | Activity (U-937 [2]) [%] | Activity (U-937 [3]) [%] | Activity (U-937 [4]) | Activity (U-937 [5]) [%] | other results |
| --- | --- | --- | --- | --- | --- | --- |
| O=C(CCCCCCC(=O)Nc1ccccc1)NO | Active |  |  |  |  |  |
| C=CC/C=C\C/C=C\CCCCCCCc1cccc(O)c1C(=O)O |  | 62 |  |  |  |  |
| COc1cc(/C=C/C(=O)CC(=O)/C=C/c2ccc(O)c(OC)c2)ccc1O |  |  | 46 |  |  |  |
| CCCCCCCCCCCCCC=C(C(=O)OCC)C(=O)OCC |  |  |  | Active | 23.8 |  |
| C=C1C(=O)O[C@H](CCC)[C@H]1C(=O)O |  | 55 |  |  |  |  |
| CCCCCCCCCCCCCCC=C(C(=O)OCC)C(=O)OCC | Active | 81 | 74 | Active | 23.9 | Activity (U-937 [6]): Active; Activity (U-937 [7]): Active; Activity (U-937 [8]): Active; Activity (U-937 [9]): inactive; Activity [10]: Active; Activity (HEK-TE [11]): Active; Activity (U-937 [12]): 94.4%; Activity [13]: inactive |
